# According to patent US9035056B2, “Pyrido[4,3-b]indole and pyrido[3,4-b]indole derivatives and methods of use” (Medivation Technologies, Inc., priority 2011, dated 2015):
# Target: T1, human recombinant adrenergic α1D receptor (Homo sapiens, UniProt P25100)
# T1 construct: expressed in transfected cells; host or cells: HEK-293
# T1 sequence (P25100 1-572): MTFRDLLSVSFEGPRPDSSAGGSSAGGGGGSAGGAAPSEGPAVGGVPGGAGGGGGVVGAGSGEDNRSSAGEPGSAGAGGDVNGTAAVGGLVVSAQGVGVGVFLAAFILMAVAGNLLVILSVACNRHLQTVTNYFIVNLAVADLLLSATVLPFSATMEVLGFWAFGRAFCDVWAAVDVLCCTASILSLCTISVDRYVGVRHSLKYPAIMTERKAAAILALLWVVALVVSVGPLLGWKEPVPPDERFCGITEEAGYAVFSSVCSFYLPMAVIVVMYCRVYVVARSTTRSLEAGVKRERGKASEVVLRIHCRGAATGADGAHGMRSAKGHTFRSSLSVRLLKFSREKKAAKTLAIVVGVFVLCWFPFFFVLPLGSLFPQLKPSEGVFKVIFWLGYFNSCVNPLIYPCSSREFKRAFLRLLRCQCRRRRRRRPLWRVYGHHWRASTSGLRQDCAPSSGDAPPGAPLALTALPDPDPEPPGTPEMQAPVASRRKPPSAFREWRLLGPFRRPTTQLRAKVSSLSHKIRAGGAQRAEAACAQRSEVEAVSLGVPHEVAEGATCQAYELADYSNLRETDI
# Assay: Adrenergic α1D radioligand binding ([3H]Prazosin)
# Conditions: 0.1 μM compound; read-out: Percentage inhibition of ligand binding, Adrenergic α1D
# Procedure: To evaluate in radioligand binding assays the activity of compounds of the invention, human recombinant adrenergic α1D receptor expressed in human embryonic kidney (HEK-293) cells (Kenny, B. et al, Br. J. Pharmacol. 115(6):981, 1995) in a 50 mM Tris-HCl buffer, pH 7.4, was used. Compounds of invention were incubated with 0.6 nM [^3H]Prazosin for 60 min at 25° C. Non-specific binding was estimated in the presence of 10 μM phentolamine. Receptor proteins were filtered and washed, the filters were then counted to determine [^3H]Prazosin specifically bound. Compounds were screened at 1 μM or lower, using 1% DMSO as vehicle. Biochemical assay results are presented as the percent inhibition of specific binding in Table 3.
row,SMILES,inhibition at 0.1 µM
1,Cc1ccc2c(c1)c1c(n2/C=C2/CCCc3ccccc32)CCN(C)C1 [i-2],86%
2,Cc1ccc2c(c1)c1c(n2/C=C2\CCCc3ccccc32)CCN(C)C1 [i-3],43%
